Patent US11072628B2, “Nucleoside analogues for the treatment of parasitic infections” (UNIVERSITEIT GENT, priority 2017, dated 2021)
Read-outs that look alike come from different tables or passages of the source.

Assays:
[1] = system: T. cruzi Tulahuen CL2 β galactosidase strain; test: T. cruzi Tulahuen CL2 β galactosidase strain on MRC-5SV2 cells (CPRG); assay type: cell-based, Trypanosoma cruzi; conditions: Trypanosoma cruzi, TULAHUEN, MRC-5 SV2
Experimental: All cultures and assays were conducted at 37° C./5% CO2. […] The results were expressed as % reduction in parasite burdens compared to control wells from which an EC50 was calculated.

[2] = system: T. b. rhodesiense STIB-900; test: In vitro drug susceptibility, T. b. rhodesiense STIB-900 (resazurin); assay type: cell-based, Trypanosoma brucei rhodesiense; conditions: Trypanosoma brucei, RHODESIENSE
Experimental: (§1) All trypanosome strains were cultured in the standard HMI-9 medium supplemented with 10% fetal bovine serum (FBS) at 37° C. in a 5% CO2 atmosphere.

T. brucei Squib 427 = test: In vitro drug susceptibility, T. brucei Squib 427 (resazurin); assay type: cell-based, Trypanosoma brucei brucei; conditions: Trypanosoma brucei
Experimental: as §1

[3] = Cytotoxicity against MRC-5 fibroblasts; conditions: human, MRC-5 fibroblasts, cytotoxicity
Experimental: Cytotoxicity was assayed against MRC-5 fibroblasts. Results are depicted in Tables 4 and 5.

[4] = system: T. vaginalis trophozoites (metronidazole susceptible G3 strain); test: Trichomonas vaginalis in vitro assay; assay type: cell-based; conditions: Trichomonas vaginalis, average of 2-5 independent replicates
Experimental: T. vaginalis trophozoites (metronidazole susceptible G3 strain) were grown in vitro in modified Diamond's media (MDM) with 10% heat inactivated horse serum (HIHS) acquired from Gibco Life Technologies. After medium preparation, the pH was adjusted to 6.3-6.4 employing 1.0 M aq. HCl. Parasites cultures were passaged every day by taking 1 mL of cell culture into a 25 mL bottle of fresh media to ensure the cells were kept at the appropriate concentration of ˜2×10^6 cells/mL. The culture flasks were filled completely and tightly capped to provide the cells with an anaerobic environment. The parasites were maintained in incubation at 37° C. When culturing in multiwell plates, the plates were sealed with Nescofilm® and inserted in BD GasPak EZ pouches (BD Diagnostics, UK) in order to create anaerobic conditions. Assays were performed with 5×10^4 trophozoites/well (100 μL) to which compound dilutions were added (100 μL). Outside wells of columns and rows were filled with 200 μL of sterile water. Plates were sealed with Nescofilm® and incubated under anaerobic conditions as described above. After 24 h, 30 μL of assay dye solution (resorufin) was added, and incubated for 1-2 h before being read using Fluostar Optima (BMG Labtech, UK) at an excitation wavelength of 544 nm and an emission wavelength of 620 nm.

[5] = Table 2, average of 2-3 independent replicates
[6] = read-out: T. brucei brucei EC50, Table 1, average of 2-4 independent determinations
[7] = Table 5, average of 2-4 independent replicates
[8] = read-out: T.b. brucei EC50, Table 4, average of 2-6 independent determinations

Row | Compound | melting point | EC50 [1, 5] [µM] | EC50 ([2]; read-out: T. brucei rhod. EC50) [µM] | EC50 (T. brucei Squib 427; [6]) [µM] | EC50 ([3]; MRC-5 EC50, Table 1) [µM] | EC50 ([3]; MRC-5 EC50, Table 2) [µM] | EC50 ([4]; Table 6) [µM] | EC50 [1, 7] [µM] | EC50 ([2]; read-out: T.b. rhod. EC50) [µM] | EC50 (T. brucei Squib 427; [8]) [µM] | EC50 ([3]; MRC-5 EC50, Table 4) [µM] | EC50 ([3]; MRC-5 EC50, Table 5) [µM] | EC50 ([4]; Table 3) [µM] | EC50 (T. brucei Squib 427; read-out: EC50 against T. brucei) [µM]
1 | Nc1ncnc2c1c(-c1ccc([N+](=O)[O-])cc1)cn2[C@@H]1O[C@H](CO)C[C@H]1O [FH9582, 4-amino-5-(4-nitrophenyl)-N7-(3′-deoxy-β-D-ribofuranosyl)-pyrrolo[2,3-d]pyrimidine] | 254 °C (dec.) | 1.2 | 0.32 | 2.1 | > 64 | > 64 | – | – | – | – | – | – | – | –
2 | Nc1ncnc2c1c(C(F)(F)F)cn2[C@@H]1O[C@H](CO)C[C@H]1O [FH9526, 4-amino-5-trifluoromethyl-N7-(3′-deoxy-β-D-ribofuranosyl)-pyrrolo[2,3-d]pyrimidine] | 167 °C | 2.33 | 1.88 | 0.94 | 0.66 | 0.66 | – | – | – | – | – | – | – | –
3 | Nc1ncnc2c1c(-c1cccc(Cl)c1)cn2[C@@H]1O[C@H](CO)C[C@H]1O [FH10641, 4-amino-5-(3-chlorophenyl)-N7-(3′-deoxy-β-D-ribofuranosyl)-pyrrolo[2,3-d]pyrimidine] | 130 °C | 0.97 | 0.55 | 7.13 | 36.1 | 36.1 | – | – | – | – | – | – | – | –
4 | Nc1ncnc2c1c(-c1cc(Cl)cc(Cl)c1)cn2[C@@H]1O[C@H](CO)C[C@H]1O [FH10642, 4-amino-5-(3,5-dichlorophenyl)-N7-(3′-deoxy-β-D-ribofuranosyl)-pyrrolo[2,3-d]pyrimidine] | 211 °C | 0.55 | 5.45 | 7.7 | 30.2 | 30.2 | – | – | – | – | – | – | – | –
5 | Nc1ncnc2c1c(-c1ccc(Cl)cn1)cn2[C@@H]1O[C@H](CO)[C@@H](O)[C@H]1O [MS1039, 4-amino-5-(5-chloro-pyrid-2-yl)-N7-(β-D-ribofuranosyl)-pyrrolo[2,3-d]pyrimidine] | – | – | – | – | – | – | 0.86 | 2.39 | 4.6 | 8.97 | > 64 | > 64 | – | –
6 | Nc1ncnc2c1c(-c1ccccc1)cn2[C@@H]1O[C@H](CO)[C@@H](O)[C@H]1O [TH1004, 4-amino-5-phenyl-N7-(β-D-ribofuranosyl)-pyrrolo[2,3-d]pyrimidine] | – | – | – | – | – | – | 0.43 | 3.44 | 4.1 | 32.3 | 56.2 | 56.2 | – | –
7 | Cc1cc(-c2cn([C@@H]3O[C@H](CO)C[C@H]3O)c3ncnc(N)c23)ccc1Cl [FH10648, 4-amino-5-(3-methyl-4-chlorophenyl)-N7-(3′-deoxy-β-D-ribofuranosyl)-pyrrolo[2,3-d]pyrimidine] | 125 °C | 0.21 | 2.09 | 6.4 | 16.7 | 16.7 | – | – | – | – | – | – | – | –
8 | CCCC#Cc1cn([C@@H]2O[C@H](CO)C[C@H]2O)c2ncnc(N)c12 [FH9610, 4-amino-5-pent-1-yn-N7-(3′-deoxy-β-D-ribfuranosyl)-pyrrolo[2,3-d]pyrimidine] | 127 to 129 °C | 4.1 | 0.04 | 0.32 | > 64 | > 64 | – | – | – | – | – | – | – | –
9 | Nc1ncnc2c1c(-c1ccc(Cl)c(Cl)c1)cn2[C@@H]1O[C@H](CO)C[C@H]1O [FH8513] | – | 0.06 | 1.5 | 1.8 | 13.6 | 13.6 | – | – | – | – | – | – | 0.33 | –
10 | OC[C@@H]1C[C@@H](O)[C@H](n2cc(Br)c3cncnc32)O1 [FH9539, 5-bromo-N7-(3′-deoxy-β-D-ribofuranosyl)-pyrrolo[2,3-d]pyrimidine] | 186 °C | 36.8 | 0.91 | 0.51 | 21 | 21 | – | – | – | – | – | – | – | –
11 | Nc1ncnc2c1c(Br)cn2[C@@H]1O[C@H](CSCCO)C[C@H]1O [FH9591, 4-amino-5-bromo-N7-(3′-deoxy-5′-thio-ethan-2-ol-β-D-ribofuranosyl)-pyrrolo[2,3-d]pyrimidine] | 164 °C | 33.8 | 0.71 | 5.05 | 26.5 | 26.5 | – | – | – | – | – | – | – | –
12 | Nc1ncnc2c1c(C#Cc1ccccc1)cn2[C@@H]1O[C@H](CO)C[C@H]1O [FH8504, 4-amino-5-phenylethynyl-N7-(3′-deoxy-β-D-ribofuranosyl)-pyrrolo[2,3-d]pyrimidine] | 120 °C | 3.7 | 0.12 | 0.3 | 9.6 | 9.6 | – | – | – | – | – | – | – | –
13 | Nc1ncnc2c1c(-c1ccc(C(F)(F)F)cc1)cn2[C@@H]1O[C@H](CO)C[C@H]1O [FH9576, 4-amino-5-(4-trifluoromethylphenyl)-N7-(3′-deoxy-β-D-ribofuranosyl)-pyrrolo[2,3-d]pyrimidine] | – | 0.53 | 6.6 | 19.5 | 40 | 40 | – | – | – | – | – | – | 0.26 | –
14 | Nc1ncnc2c1c(/C=C/c1ccccc1)cn2[C@@H]1O[C@H](CO)C[C@H]1O [FH10660, 4-amino-5-(E-styryl)-N7-(3′-deoxy-β-D-ribfuranosyl)-pyrrolo[2,3-d]pyrimidine] | 170 °C | 6.28 | 0.17 | 1.76 | 49.4 | 49.4 | – | – | – | – | – | – | – | –
15 | Cc1ncc([N+](=O)[O-])n1CCO [Metronidazole, reference compound] | – | – | – | – | – | – | – | – | – | – | – | – | 0.53 | –
16 | COc1cc(-c2cn([C@@H]3O[C@H](CO)C[C@H]3O)c3ncnc(N)c23)ccc1Cl [FH10649, 4-amino-5-(3-methoxy-4-chlorophenyl)-N7-(3′-deoxy-β-D-ribofuranosyl)-pyrrolo[2,3-d]pyrimidine] | 208 °C | 0.06 | 0.54 | 2.01 | 17.2 | 17.2 | – | – | – | – | – | – | – | –
17 | C#Cc1cn([C@@H]2O[C@H](CO)C[C@H]2O)c2ncnc(N)c12 [FH8505, 4-amino-5-ethynyl-N7-(3′-deoxy-β-D-ribofuranosyl)-pyrrolo[2,3-d]pyrimidine] | 192 °C | 1.66 | 0.0005 | 0.005 | – | – | – | – | – | – | – | – | – | –
18 | CCc1cn([C@@H]2O[C@H](CO)C[C@H]2O)c2ncnc(N)c12 [FH9613, 4-amino-5-ethyl-N7-(3′-deoxy-β-D-ribofuranosyl)-pyrrolo[2,3-d]pyrimidine] | 200 °C | 19.7 | 0.65 | 1.78 | > 64 | > 64 | – | – | – | – | – | – | – | –
19 | Cc1ccc(-c2cn([C@@H]3O[C@H](CO)C[C@H]3O)c3ncnc(N)c23)cc1Cl [FH10644, 4-amino-5-(3-chloro-4-methylphenyl)-N7-(3′-deoxy-β-D-ribofuranosyl)-pyrrolo[2,3-d]pyrimidine] | 135 °C | 0.27 | 5.99 | 4.74 | 17.9 | 17.9 | – | – | – | – | – | – | – | –
20 | CCc1ccc(-c2cn([C@@H]3O[C@H](CO)C[C@H]3O)c3ncnc(N)c23)cc1 [FH10647] | 114 °C | 1.04 | 1.5 | 7.58 | 18.4 | 18.4 | – | – | – | – | – | – | – | –
21 | CCCCC#Cc1cn([C@@H]2O[C@H](CO)C[C@H]2O)c2ncnc(N)c12 [FH9611, 4-amino-5-hex-1-yn-N7-(3′-deoxy-β-D-ribfuranosyl)-pyrrolo[2,3-d]pyrimidine] | 161 to 163 °C | 9.7 | 0.06 | 0.32 | > 64 | > 64 | – | – | – | – | – | – | – | –
22 | Nc1ncnc2c1c(CCc1ccccc1)cn2[C@@H]1O[C@H](CO)C[C@H]1O [FH10661, 4-amino-5-(phenylethyl)-N7-(3′-deoxy-β-D-ribfuranosyl)-pyrrolo[2,3-d]pyrimidine] | 76 °C | > 64 | 0.67 | 8.26 | > 64 | > 64 | – | – | – | – | – | – | – | –
23 | Nc1ncnc2c1c(-c1cc(Cl)cc(Cl)c1)cn2[C@@H]1O[C@H](CO)[C@@H](O)[C@H]1O [FH8460, 4-amino-5-(3,5-dichlorophenyl)-N7-(β-D-ribofuranosyl)-pyrrolo[2,3-d]pyrimidine] | 219 °C | – | – | – | – | – | – | 1.72 | 3.66 | 8.17 | > 64 | > 64 | – | < 10
